Test results published in PMC2662387 (Journal of medicinal chemistry, 2008).

Columns and labels:
D2 receptor = D2 receptor (Rattus norvegicus, UniProt P61169); experiment: Hypothermia in rats; type: in vivo; settings: for Induction of hypothermia: compound alone
D3 receptor [1] = target: T1, D3 receptor (Rattus norvegicus, UniProt P19020); type: in vivo; settings: rats
Aqueous solubility = type: physicochemical
D3 receptor [2] = target: T1, D3 receptor; experiment: D3 receptor binding assay, [3H]PD128907, rat brain; settings: for Fold less potent than 6 at the D3 receptor: relative to compound 6

Sequence of D2 receptor (P61169 whole entry): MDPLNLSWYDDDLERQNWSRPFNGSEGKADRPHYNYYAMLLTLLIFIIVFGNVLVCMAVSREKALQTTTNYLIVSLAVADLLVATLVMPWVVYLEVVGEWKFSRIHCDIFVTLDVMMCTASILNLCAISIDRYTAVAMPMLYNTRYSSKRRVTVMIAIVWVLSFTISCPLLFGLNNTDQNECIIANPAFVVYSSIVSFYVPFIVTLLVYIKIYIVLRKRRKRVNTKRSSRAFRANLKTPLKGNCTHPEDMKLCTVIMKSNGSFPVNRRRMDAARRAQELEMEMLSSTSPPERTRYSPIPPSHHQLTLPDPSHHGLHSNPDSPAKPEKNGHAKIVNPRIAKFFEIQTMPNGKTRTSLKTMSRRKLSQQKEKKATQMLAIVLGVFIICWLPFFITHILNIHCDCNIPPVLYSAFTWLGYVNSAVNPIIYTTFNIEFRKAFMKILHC
T1 sequence (P19020 whole entry): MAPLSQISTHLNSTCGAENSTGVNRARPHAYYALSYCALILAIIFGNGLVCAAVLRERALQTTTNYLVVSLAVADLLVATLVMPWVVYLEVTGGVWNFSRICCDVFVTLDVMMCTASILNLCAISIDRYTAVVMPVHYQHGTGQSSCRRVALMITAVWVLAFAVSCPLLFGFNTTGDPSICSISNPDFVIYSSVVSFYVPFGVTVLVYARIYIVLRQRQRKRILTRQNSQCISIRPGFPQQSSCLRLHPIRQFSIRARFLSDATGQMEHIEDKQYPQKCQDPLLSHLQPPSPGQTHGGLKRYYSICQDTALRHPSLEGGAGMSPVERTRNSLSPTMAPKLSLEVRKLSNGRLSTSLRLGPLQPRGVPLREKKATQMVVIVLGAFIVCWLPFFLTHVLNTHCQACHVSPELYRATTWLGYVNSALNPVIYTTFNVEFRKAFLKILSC

SMILES	Aqueous solubility (in words) (Aqueous solubility)	Induction of hypothermia (D2 receptor)	other results
CCCN[C@H]1CCc2nc(N)sc2C1 [Compound 1, pramipexole, reference compound]	–	induction of hypothermia occurring at higher doses	Induction of yawning (D3 receptor [1]; compound alone, dose-response): increases in yawning were observed over low doses (0.01 to 0.1 mg/kg); In vivo functional profile at D3 and D2 receptors (D3 receptor [1]; concluded from yawning and hypothermia assays): preferential D3 agonist in vivo and a D2 agonist at higher doses
COc1ccc2c(c1)CC[C@@H]1CN(CC[C@H]3CC[C@H](NC(=O)c4ccc5ccccc5c4)CC3)CCN21 [Compound 4, reference compound]	poor aqueous solubility	–	Selectivity D1-like/D3 (D3 receptor [2]; ratio of Ki values): >5000 fold; Selectivity D2-like/D3 (D3 receptor [2]; ratio of Ki values, high affinity D2 component where 2-site fit): >1000 fold
CC(C)CCN(CC[C@H]1CC[C@H](NC(=O)c2ccc3ccccc3c2)CC1)[C@H]1CCc2nc(N)sc2C1 [Compound 8]	–	–	Fold less potent than 6 at the D3 receptor (D3 receptor [2]): 5 times
Nc1nc2c(s1)C[C@@H](NCC[C@H]1CC[C@H](NC(=O)c3ccc4ccccc4c3)CC1)CC2 [Compound 10]	–	–	Fold less potent than 6 at the D3 receptor (D3 receptor [2]): 19 times
CCCN(CC[C@H]1CC[C@H](NC(=O)/C=C/c2ccccc2)CC1)[C@H]1CCc2nc(N)sc2C1 [Compound 12]	good aqueous solubility	failed to induce changes in body temperature over the initial hour of observation	Effect on compound 1-induced hypothermia (D2 receptor; pretreatment with 12): failed to alter the induction of hypothermia by 1

More lines, main results first:

Aqueous solubility (in words) (Aqueous solubility)	SMILES	Induction of hypothermia (D2 receptor)	other results
good aqueous solubility	CCCN(CCCCNC(=O)c1ccc2ccccc2c1)[C@H]1CCc2nc(N)sc2C1 [Compound 5]	hypothermia was induced by 5 at higher doses	–
good aqueous solubility	CCCN(CC[C@H]1CC[C@H](NC(=O)c2ccc3ccccc3c2)CC1)[C@H]1CCc2nc(N)sc2C1.Cl.Cl [Compound 6]	failed to induce changes in body temperature over the initial hour of observation	–
